14 compounds from PubChem BioAssay (NCI) can be followed below.

Some test systems named below: M14 melanoma; SK-MEL-2 melanoma; 786-0 renal; NCI/ADR-RES ovarian; EKVX NSCLC; MCF7 breast; KM12 colon; IGROV1 ovarian; HT29 colon; HL-60(TB) leukemia.
Holding throughout (test): DTP human tumour cell line panel, 48 h

Values joined by “and” are separate entries in the source; they are usually repeats but may differ in a detail not shown here. Equal values may be shown once.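 Cultured in 96-well plates, cells were exposed to test compound for 48 hours across five concentrations. GI50 marks 50% less growth. The concentration for full growth arrest is given as TGI.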 Where a SMILES comes first, the peptide text is derived from it. [ ]: non-standard residue; d: D form. Bounds are passed on as bounds.

Consider `CN(C)C(=O)N1N[C@H](c2ccccc2)[C@@H]1c1ccccc1`, for which the total growth inhibition concentration (TGI) with M14 melanoma, in the test on SK-MEL-2 melanoma, in the test with 786-0 renal, with NCI/ADR-RES ovarian, with EKVX NSCLC and in the test on MCF7 breast was > 100 µM each time. Further, the concentration for total growth inhibition (TGI) with KM12 colon and with IGROV1 ovarian was > 100 µM in each case.

`CCn1c(CCCc2nc3c([nH]2)c(=O)n(C)c(=O)n3C)nc2c1c(=O)n(C)c(=O)n2C`: the TGI in the test on HT29 colon, in the test on M14 melanoma, in the test on 786-0 renal, with NCI/ADR-RES ovarian, in the test on EKVX NSCLC and in the test on MCF7 breast was > 100 µM in each case. Also, the TGI in the test on HL-60(TB) leukemia, in the test on KM12 colon and with IGROV1 ovarian was > 100 µM in each case.

As for `O=C1Sc2ccccc2C(=O)N2CCSC12` (stereo not drawn), the concentration for total growth inhibition (TGI) with M14 melanoma, with SK-MEL-2 melanoma, in the test on HL-60(TB) leukemia and in the test with KM12 colon was > 100 µM throughout.

On to `Cc1cc(C)[n+]2c(c1)C=CC2`, for which the TGI in the test on HT29 colon was > 100 µM; in the test with M14 melanoma, > 100 µM; in the test with SK-MEL-2 melanoma it was 93.8 µM; in the test with 786-0 renal, > 100 µM; in the test on EKVX NSCLC, > 100 µM; in the test with HL-60(TB) leukemia, 26.3 µM. Further, in the test with KM12 colon, the TGI was > 100 µM.

Consider `O=c1c2cccnc2oc2c(Cl)cc(-c3nn[nH]n3)cc12`, for which the concentration for total growth inhibition (TGI) in the test with HT29 colon, in the test with M14 melanoma, in the test with SK-MEL-2 melanoma, in the test on NCI/ADR-RES ovarian, in the test on EKVX NSCLC and in the test on HL-60(TB) leukemia was > 100 µM in each case. The concentration for total growth inhibition (TGI) with KM12 colon and in the test with IGROV1 ovarian was > 100 µM in each case.

Consider `Cc1nc(N)c(N2CCN(S(=O)(=O)N(Cc3ccccc3)Cc3ccccc3)CC2)c(=O)[nH]1`, for which the TGI in the test on HT29 colon was 63.3 µM; in the test on M14 melanoma it was > 100 µM; with SK-MEL-2 melanoma, > 100 µM; in the test on 786-0 renal it was > 100 µM; with NCI/ADR-RES ovarian, > 100 µM; in the test with EKVX NSCLC, > 100 µM. In addition, the TGI in the test with MCF7 breast, in the test on HL-60(TB) leukemia and in the test on KM12 colon was > 100 µM throughout.

Turning to `N#Cc1ccc(-c2ccc(Cl)cc2)n(C2OC(CO)C(O)C(O)C2O)c1=S` (stereo not drawn), the concentration for total growth inhibition (TGI) is > 100 µM in the test on HT29 colon; > 100 µM in the test on M14 melanoma; > 100 µM and 52.5 µM in the test on SK-MEL-2 melanoma; > 100 µM in the test with 786-0 renal; > 100 µM in the test on EKVX NSCLC; > 100 µM in the test on MCF7 breast. Also, the total growth inhibition concentration (TGI) in the test with HL-60(TB) leukemia, in the test on KM12 colon and in the test with IGROV1 ovarian was > 100 µM each time. Further, the GI50 in the test on SK-MEL-2 melanoma was > 100 µM and 10.6 µM; with EKVX NSCLC, > 100 µM and 33.7 µM; in the test with IGROV1 ovarian it was > 100 µM and 28 µM.

Turning to `O=C1C(Cl)N(c2ccc([N+](=O)[O-])cc2)C1c1c[nH]c2ccccc12` (stereo not drawn), the TGI in the test with HT29 colon, in the test on M14 melanoma, in the test on SK-MEL-2 melanoma, in the test on EKVX NSCLC, with HL-60(TB) leukemia and in the test with KM12 colon was > 100 µM throughout. In the test with IGROV1 ovarian, the total growth inhibition concentration (TGI) was > 100 µM.

Turning to `Cc1ccc2sc3c(NCCCN)nc4ccccc4c3c(=O)c2c1`, the GI50 in the test with M14 melanoma is 1.91 µM; in the test on SK-MEL-2 melanoma it was 2.18 µM; with NCI/ADR-RES ovarian it was 1.8 µM; with EKVX NSCLC, 1.89 µM; in the test with MCF7 breast it was 1.77 µM; in the test with HL-60(TB) leukemia, 2.05 µM. The GI50 is 1.9 µM in the test with KM12 colon and 1.61 µM in the test with IGROV1 ovarian. Besides, the concentration for total growth inhibition (TGI) in the test on M14 melanoma was determined as 3.61 µM; with SK-MEL-2 melanoma, 4.66 µM; with NCI/ADR-RES ovarian, 3.45 µM; in the test on EKVX NSCLC it was 4.09 µM; in the test on MCF7 breast it was 3.36 µM; in the test with HL-60(TB) leukemia, 4.09 µM. Also, the values for the TGI with KM12 colon and in the test on IGROV1 ovarian were 3.51 µM and 3.26 µM, respectively.

For `CC(C)C[C@H](NC(=O)[C@H](CC(C)C)NC(=O)[C@@H](Cc1c[nH]c2ccccc12)NC(=O)[C@H](Cc1ccccc1)NC(=O)[C@@H](Cc1c[nH]c2ccccc12)NC(=O)[C@H](CCC(N)=O)NC(=O)[C@@H](CCC(N)=O)NC(=O)[C@@H]1CCCN1C(=O)[C@@H](CCCCN)NC(=O)[C@H]1CCCN1C(=O)[C@H](N)CCCN=C(N)N)C(N)=O` (H-[dR][dP][dK]P[dQ]Q[dW]F[dW]LL-NH2), the TGI in the test on HT29 colon, with SK-MEL-2 melanoma, in the test with NCI/ADR-RES ovarian, with EKVX NSCLC, in the test on MCF7 breast and with HL-60(TB) leukemia was > 100 µM each time. Besides, the total growth inhibition concentration (TGI) with KM12 colon and in the test with IGROV1 ovarian was > 100 µM each time.

For `O=c1c(O)c(-c2ccccc2)oc2c(CP(=O)(O)O)cccc12`, the total growth inhibition concentration (TGI) in the test with M14 melanoma, in the test with SK-MEL-2 melanoma, in the test with 786-0 renal, in the test on EKVX NSCLC, in the test on MCF7 breast and with IGROV1 ovarian was > 100 µM throughout.

As to `COC1(OC)CC(CO)(COc2cc(Cl)nc(N)n2)C1`, the concentration for total growth inhibition (TGI) in the test with HT29 colon, in the test on SK-MEL-2 melanoma, with 786-0 renal, with NCI/ADR-RES ovarian, with EKVX NSCLC and in the test with MCF7 breast was > 100 µM throughout. The TGI in the test with KM12 colon and with IGROV1 ovarian was > 100 µM each time.

Consider `O=S(=O)(O)c1ccc(O)c(N=Nc2c(O)ccc3ccccc23)c1`, for which the TGI in the test on HT29 colon, in the test with M14 melanoma, in the test on SK-MEL-2 melanoma, with 786-0 renal, with NCI/ADR-RES ovarian and with EKVX NSCLC was > 100 µM throughout. Moreover, the concentration for total growth inhibition (TGI) in the test on KM12 colon and in the test on IGROV1 ovarian was > 100 µM throughout.

On to `Cc1cn(C2CC(O)C(Cn3nncc3Cn3nc(Br)c(=O)[nH]c3=O)O2)c(=O)[nH]c1=O` (stereo not drawn), for which the TGI in the test on M14 melanoma, in the test with SK-MEL-2 melanoma, with 786-0 renal, in the test on NCI/ADR-RES ovarian, in the test with EKVX NSCLC and with MCF7 breast was > 100 µM in each case. The TGI with KM12 colon and in the test with IGROV1 ovarian was > 100 µM each time.
